The structures appear in SMILES notation.

The target of one test is T1, PIP4K2 B (Homo sapiens, UniProt P78356).
T1 construct: made in house; host or cells: E. coli
T1 sequence (P78356 1-416): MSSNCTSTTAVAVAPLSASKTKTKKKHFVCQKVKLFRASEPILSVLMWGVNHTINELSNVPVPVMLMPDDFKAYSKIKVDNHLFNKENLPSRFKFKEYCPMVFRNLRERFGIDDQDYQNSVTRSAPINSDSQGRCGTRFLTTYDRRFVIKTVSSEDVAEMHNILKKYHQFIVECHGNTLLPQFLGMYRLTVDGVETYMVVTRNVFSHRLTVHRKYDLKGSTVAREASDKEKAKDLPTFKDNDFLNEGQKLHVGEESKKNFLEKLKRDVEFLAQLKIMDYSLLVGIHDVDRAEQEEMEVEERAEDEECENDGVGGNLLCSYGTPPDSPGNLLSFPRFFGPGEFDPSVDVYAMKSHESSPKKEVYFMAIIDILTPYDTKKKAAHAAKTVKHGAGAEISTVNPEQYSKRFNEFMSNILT
The test is described as follows: Kinase Assay-PIP4K2 B (Transcreener FI). It counts as biochemical. An excerpt:
GST tagged PIP4KtypeIIA and B enzymes were overexpressed in E. Coli and purified to >80% homogeneity. Phosphatidyl inositol-5-phosphate (PI5P, Cat. #850152, Avanti Polar Lipids Inc.) was used as the lipid substrate and phosphatidyl ethanolamine (DOPE 18:1, Cat. #850725, Avanti Polar Lipids Inc.) was used as the carrier lipid for assays. Ultrapure ATP and GTP was purchased from Bellbrooke Labs. ADP Glo reagents were obtained from Promega. Transcreener FI reagent was obtained from Bellbrooke labs.
• 1. HEPES buffer mix: 200 mM HEPES pH 7.4, 50 mM MgCl2, 0.05% v/v triton X 100 • 2. HNE buffer: 20 mM HEPES, pH 7.4, 100 mM NaCl, 0.5 mM EGTA • 3. H:E buffer: 30 mM HEPES, pH 7.4, 1 mM EGTA
GST-tagged PIP4KtypeIIB (3.4 μl, 2.77 mg/mL) was diluted to 5 mL using HNE buffer to yield 5× enzyme stock (25 nM)
Lipid Preparation: In a 10 mL pyrex glass vial, […] were suspended in 2.5 mL of HEPES buffer mix and 2.5 mL of H:E buffer. The contents were mixed and sonicated for 3 min to yield a translucent lipid stock.
Compound Preparation: Compounds were stored as 5 mM stocks in neat DMSO as room temperature in glass vials. 5 mM stocks were diluted to 2 mM and then serially diluted (3×) in neat DMSO in 96 well polypropylene plates. From the serially diluted stocks, 3 μL was delivered into 250 μL of 25% DMSO (in water) to generate 5× compound stocks. Typically, the highest compound conc. was 24 μM.
The assay volume was kept at 25 μL. To each well of the reaction plate, 10 μL of lipid stock (1:1 ratio PI5P:DOPE) was delivered. This was followed by the addition of 5 μL of compound in 25% DMSO. Then, to each well, 5 μL of 25 nM (5×) typeIIB enzyme was delivered. The contents were mixed well and incubated for 1 h at 27° C. After 1 h, reaction was initiated by adding 5 μL of 500 μM GTP and the contents were mixed well with a multi-channel pipetteman. The final concentration of the reagents are as follows: 50 mM HEPES, pH 7.3, 10 mM MgCl2, 20 mM NaCl, 0.01% v/v triton-X100, 5% DMSO, 100 μM GTP, 80 μM (2 μg) PI5P, 2 μg DOPE, and 5 nM PIP4KIIB Typically, the highest conc. of compounds was 4.8 μM and the lowest conc. was 0.
After 2 h, the reaction was quenched by adding 25 μL of transcreener FI reagent. The contents were incubated at rt for 1 h and the Fluorescence (Ex: 584 Em: 623) was read using Molecular Devices Paradigm plate reader. […] The blanks were averaged and subtracted from all other wells. Using a calibration curve, RFU was converted to μM GDP (product). IC50 was calculated by plotting the residual activity (expressed as % No inhibitor control) vs. log [Inh. conc.].

The test system of the next test is MOLM-16. The test is described as follows: MOLM-16 EC50 assay. It counts as cell-based. To be noted: MOLM16.
Another test concerns the target T2, PIP4K2A (Homo sapiens, UniProt P48426).
T2 construct: made in house; host or cells: E. coli
T2 sequence (P48426 1-406): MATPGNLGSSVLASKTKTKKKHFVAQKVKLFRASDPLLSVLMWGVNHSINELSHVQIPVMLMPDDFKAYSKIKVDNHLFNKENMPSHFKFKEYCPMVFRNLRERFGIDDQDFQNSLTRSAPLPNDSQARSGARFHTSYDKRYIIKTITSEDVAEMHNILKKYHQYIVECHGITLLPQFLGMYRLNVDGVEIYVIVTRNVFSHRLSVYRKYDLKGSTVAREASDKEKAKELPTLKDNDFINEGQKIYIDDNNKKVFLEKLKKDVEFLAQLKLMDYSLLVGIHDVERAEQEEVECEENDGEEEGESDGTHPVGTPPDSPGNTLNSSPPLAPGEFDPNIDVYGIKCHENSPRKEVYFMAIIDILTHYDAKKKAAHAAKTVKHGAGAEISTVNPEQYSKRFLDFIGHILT
The test is described as follows: Kinase Assay-PIP4K2 A (ADP-Glo). The class given is biochemical. How it is done: Dilution series of the compounds were prepared in DMSO at 100 times the final assay concentration (n1=n0/3 in 10 points). The compounds were further diluted to three times the assay concentration in assay buffer (20 mM MOPS pH 7.2, 25 mM magnesium chloride, 0.005% Tween 20). 6 μL of the diluted compounds were added to a 384 well assay plate followed by 9 μL of a mix consisting of 4 nM PIP4K2A (full length protein, SignalChem) and 100 μM PI(5)P diC8 (Tebu-Bio). Enzyme and compounds were pre-incubated at room temperature for 15 minutes.
Then 3 μL of a solution containing 60 μM ATP (Promega) in assay buffer was added to the wells containing compound and enzyme and mixing was performed by pipetting several times. The reaction was incubated at room temperature for 1 h. Then 18 μL of ADP-Glo™ Reagent (Promega) was added to stop the kinase reaction and deplete the unconsumed ATP, mixing was performed by pipetting several times. The plate was incubated at room temperature for 40 minutes before addition of 36 μL of Kinase Detection Reagent (Promega) to convert ADP to ATP and introduce luciferase and luciferin to detect ATP. The reaction was incubated at room temperature for 40 minutes before the luminescence was measured in a in a Victor 3V 1420 multilabel counter (Perkin Elmer).
Percent inhibition of the compounds as compared to dimethyl sulfoxide treated control samples was calculated. Compound concentration versus percent inhibition were fitted to generate IC50 values. […]

One may read the IC50 as the midpoint of a concentration-inhibition curve. A word on the EC50: it is the concentration at which the effect is half-maximal. The low end stands for higher potency in that assay, the high end for lower potency in that assay. As for `COc1nc(Nc2cncc(N(C)CC(=O)N3CCNCC3)c2)ncc1-c1ccc(N2CCCC2=O)cc1` [Compound 36, 1-(4-{4-methoxy-2-[(5-{methyl[2-oxo-2-(piperazin-1-yl)ethyl]amino}pyridin-3-yl)amino]pyrimidin-5-yl}phenyl)pyrrolidin-2-one], the IC50 fell in the range of 10 to 100 nM at PIP4K2 B and 1 to 10 nM against PIP4K2A. Further, the EC50 with MOLM-16 lay in the range of 100 to 1000 nM.

Turning to `Cc1cnnn1-c1ccc(-c2cnc(Nc3cnc4c(c3)N(C(=O)CN(C)C)CCO4)nc2)cc1` [Compound 20, 2-(dimethylamino)-1-[7-({5-[4-(5-methyl-1H-1,2,3-triazol-1-yl)phenyl]pyrimidin-2-yl}amino)-1H,2H,3H-pyrido[2,3-b][1,4]oxazin-1-yl]ethan-1-one], the IC50 against PIP4K2 B and against PIP4K2A was 10 to 100 nM each time. The compound also showed an EC50 in the test on MOLM-16 of 100 to 1000 nM.

In the case of `CC1(C#N)CN(c2nc(Nc3cnc4c(c3)N3C(=O)CC[C@H]3CO4)ncc2-c2ccc(N3CCCC3=O)cc2)C1` [Compound 10, 3-methyl-1-(2-{[(6S)-3-oxo-8-oxa-2,10-diazatricyclo[7.4.0.0^2,6]trideca-1(13),9,11-trien-12-yl]amino}-5-[4-(2-oxopyrrolidin-1-yl)phenyl]pyrimidin-4-yl)azetidine-3-carbonitrile], the IC50 at PIP4K2 B and against PIP4K2A was 1 to 10 nM in each case. In the test on MOLM-16, this compound yielded an EC50 of 100 to 1000 nM.

With `O=C1CCCN1c1ccc(-c2cnc(Nc3cnc4c(c3)N3C(=O)CC[C@H]3CO4)nc2C(F)(F)F)cc1` [Compound 14, (6S)-12-({5-[4-(2-oxopyrrolidin-1-yl)phenyl]-4-(trifluoromethyl)pyrimidin-2-yl}amino)-8-oxa-2,10-diazatricyclo[7.4.0.0^2,6]trideca-1(9),10,12-trien-3-one], the IC50 against PIP4K2 B and on PIP4K2A was 1 to 10 nM each time. The EC50 with MOLM-16 is above 1000 nM.

On to `C=C(C)c1cc(Nc2cnc3c(c2)N2C(=O)CC[C@H]2CO3)ncc1-c1ccc(-c2nncn2C)cc1` [Compound 8, (6S)-12-({5-[4-(4-methyl-4H-1,2,4-triazol-3-yl)phenyl]-4-(prop-1-en-2-yl)pyridin-2-yl}amino)-8-oxa-2,10-diazatricyclo[7.4.0.0^2,6]trideca-1(13),9,11-trien-3-one], for which the IC50 at PIP4K2 B and against PIP4K2A was 1 to 10 nM throughout. The EC50 in the test with MOLM-16 was above 1000 nM.

As to `Cc1cnnn1-c1ccc(-c2cnc(Nc3cnc4c(c3)N(C(=O)OCCN(C)C)CCO4)nc2)cc1` [Compound 13, 2-(dimethylamino)ethyl 7-({5-[4-(5-methyl-1H-1,2,3-triazol-1-yl)phenyl]pyrimidin-2-yl}amino)-1H,2H,3H-pyrido[2,3-b][1,4]oxazine-1-carboxylate], the IC50 on PIP4K2 B and on PIP4K2A was 1 to 10 nM in each case. This compound gave an EC50 with MOLM-16 of 100 to 1000 nM.

As for `COc1nc(Nc2cnc3c(c2)N(C(=O)OCCN(C)C)CCO3)ncc1-c1ccc(N2CCCC2=O)cc1` [Compound 5, 2-(dimethylamino)ethyl 7-({4-methoxy-5-[4-(2-oxopyrrolidin-1-yl)phenyl]pyrimidin-2-yl}amino)-1H,2H,3H-pyrido[2,3-b][1,4]oxazine-1-carboxylate], the IC50 at PIP4K2 B and at PIP4K2A was 1 to 10 nM throughout. This compound yielded an EC50 in the test with MOLM-16 of 10 to 100 nM.

For `CN(C)C(=O)c1ccc(-c2cnc(Nc3cnc4c(c3)OCCO4)nc2N(C)[C@H]2C[C@@H](O)C2)cc1` [Compound 18, 4-[2-({2H,3H-[1,4]dioxino[2,3-b]pyridin-7-yl}amino)-4-{methyl[(1s,3s)-3-hydroxycyclobutyl]amino}pyrimidin-5-yl]-N,N-dimethylbenzamide], the IC50 against PIP4K2 B fell in the range of 100 to 1000 nM; against PIP4K2A it was 10 to 100 nM. This compound registered an EC50 in the test on MOLM-16 above 1000 nM.

For the origin of these results see patent US12006332B2, “Aminopyrimidine derivatives as phosphatidylinositol phosphate kinase inhibitors” (HiberCell, Inc., priority 2019, dated 2024).
